# In article PMC12735872, “Development of ^18F/^11C-Labeled Pyrrolo-Pyridine/Pyrimidine LRRK2 Selective PET Radioligands” (Pharmaceuticals, 2025):
# Key:
# [1] = Radiometabolite analysis in monkey plasma (gradient HPLC); format: in vivo, cynomolgus monkey; settings: baseline PET
# Description: The technique published earlier was utilized for the analysis of radiometabolites in NHP blood plasma. During the entire PET measurement, the percentage of the injected radioligand and its corresponding radioactive metabolites and radioactivity was measured with a reverse-phase HPLC system with UV absorbance detector (λ = 254 nm) and a radioactive detector. […] The blood samples were centrifuged at 4000 rpm for 2 min to separate plasma. From the centrifuged plasma, the resulting plasma was withdrawn and spiked with 1.4 times its volume of acetonitrile before being spun at 6000 rpm for 4 min. The supernatant, collected after the spun at 6000 rpm, was diluted with 3 mL of water, which was then injected into the HPLC system. The HPLC system was constructed with an Agilent 1200 series binary pump (Agilent, Santa Clara, CA, USA), a Rheodyne 7725i (Thermo Scientific, Waltham, MA, USA) manual injection valve, a 5.0 mL loop, and an Oyokoken S-2493Z radiation detector (Oyokoken, Tokyo, Japan) fitted with 50 mm lead shielding, which houses the detector. Chromatographic separation of the radiometabolites from the unchanged radioligand was performed via gradient elution on a semi-preparative reverse-phase ACE 5 µm C18 HL column (250 × 10 mm) using a mobile phase of acetonitrile (A) and ammonium formate 0.1 M (B). A flow rate of 5.0 mL/min was utilized according to the program 0–6.0 min: (A/B) 40:60 → 90:10 v/v; 6.0–10.0 min: (A/B) 90:10 (v/v). The radioactive peak corresponding to the parent radioligand was then integrated from the data output of the HPLC column. The area of this peak was calculated relative to the total area detected for all radioactive compounds. To evaluate the radioactivity recovery from the system, the measurement was taken from a 2 mL aliquot of the eluate taken from the HPLC column and measured against the total injected radioactivity.
# cynomolgus monkey brain = experiment: In vivo PET imaging in cynomolgus monkeys; parameters: VT/fp: unit not given beside the values; VT: unit not given here
# Text: PET measurements were led using a high-resolution research tomograph (HRRT) from Siemens Molecular Imaging (Knoxville, TN, USA). List mode data were reconstructed using the ordinary Poisson-3D-ordered subset expectation maximization (OP-3D-OSEM) algorithm, with 10 repetitions and 16 subsets while modeling the point spread function (PSF). The in-plane resolution accomplished with OP-3D-OSEM and PSF was 1.5 mm full width at half maximum (FWHM) at the center of the field of view (FOV) and 2.4 mm at 10 cm off-center.
# The study was approved by the Animal Ethics Committee of the Swedish Animal Welfare Agency and was performed according to “Guidelines for planning, conducting and documenting experimental research” (Dnr 5.2.18-4170/14 issued on 11 April 2014) of the KI as well as the “Guide for the Care and Use of Laboratory Animals” [26]. NHPs were supplied by the Astrid Fagraeus Laboratory (AFL) of the Swedish Institute for Infectious Disease Control (SMI), Solna, Sweden. Anesthesia was brought by intramuscular injection of ketamine hydrochloride (approximately 10 mg/kg) at AFL and continued with a mixture of sevoflurane (0–8.0%), oxygen, and medical air through endotracheal intubation at the KI PET center. The NHP head was immobilized using a homemade fixation device. Body temperature was maintained with a Bair Hugger model 505 (Arizant Healthcare, Eden Prairie, MN, USA) and monitored via an esophageal thermometer. ECG, heart rate, respiratory rate, blood pressure, and oxygen saturation were continuously examined throughout the experiments. The fluid balance was retained with continuous infusion of saline.
# A 6 min transmission scan was performed before the injection of the radioligand using a single Cs-137 source. List mode data was acquired continuously for 93 min following intravenous administration of the radioligand. Images were reconstructed into 38 frames with varying intervals: […].
# For all PET measurements, radioligands were administered via intravenous injection. Regions of interest (ROIs) were manually delineated on MRI images for each NHP, for the whole brain, cerebellum, caudate, putamen, thalamus, frontal cortex, temporal cortex, amygdala, posterior cingulate cortex, anterior cingulate cortex, hippocampus, occipital cortex, parietal cortex, ventral striatum, and insula. The summed PET images over the entire duration were co-registered with the individual NHP’s MRI image. After applying the co-registration parameters to the dynamic PET data, time–activity curves were generated for each brain region for every PET measurement. The standardized uptake value (SUV) was calculated for each brain region. The total distribution volume (VT) for all three radioligands were derived using one-tissue compartment (1-TC) and two-tissue compartment (2-TC) models.
# On two separate occasions, PET measurements were performed after intravenous administration of GEN-7915 or PFE-360 with a slow infusion in one NHP (NHP2). The infusion lasted for 2 min, starting 30 min before PET scanning. The pretreatment formulations were prepared by dissolving it in DMSO (5%), Kolliphor EL (15%), and PBS (80%), and the pH of the final formulation was approximately 4.5–5.0. An automated blood sampling system (ABSS) measured continuous radioactivity for the first 3 min following the radioligand injection, while manual blood samples were taken at 4, 15, 30, 60, and 90 min post-injection to measure the radioactivity and metabolism.
# [2] = ACC, 1-TC model, pretreatment GEN-7915 (40 mg/kg)
# [3] = ACC, 1-TC model, pretreatment PFE-360 (0.5 mg/kg)
# [4] = ACC, 2-TC model, pretreatment GEN-7915 (40 mg/kg)
# [5] = ACC, 2-TC model, pretreatment PFE-360 (0.5 mg/kg)
# [6] = AMY, 1-TC model, pretreatment GEN-7915 (40 mg/kg)
# [7] = AMY, 1-TC model, pretreatment PFE-360 (0.5 mg/kg)
# [8] = AMY, 2-TC model, pretreatment GEN-7915 (40 mg/kg)
# [9] = AMY, 2-TC model, pretreatment PFE-360 (0.5 mg/kg)
# [10] = CAU, 1-TC model, pretreatment GEN-7915 (40 mg/kg)
# [11] = CAU, 1-TC model, pretreatment PFE-360 (0.5 mg/kg)
# [12] = CAU, 2-TC model, pretreatment GEN-7915 (40 mg/kg)
# [13] = CAU, 2-TC model, pretreatment PFE-360 (0.5 mg/kg)
# [14] = CB, 1-TC model, pretreatment GEN-7915 (40 mg/kg)
# [15] = CB, 1-TC model, pretreatment PFE-360 (0.5 mg/kg)
# [16] = CB, 2-TC model, pretreatment GEN-7915 (40 mg/kg)
# [17] = CB, 2-TC model, pretreatment PFE-360 (0.5 mg/kg)
# [18] = FC, 1-TC model, pretreatment GEN-7915 (40 mg/kg)
# [19] = FC, 1-TC model, pretreatment PFE-360 (0.5 mg/kg)
# [20] = FC, 2-TC model, pretreatment GEN-7915 (40 mg/kg)
# [21] = FC, 2-TC model, pretreatment PFE-360 (0.5 mg/kg)
# [22] = PUT, 1-TC model, pretreatment GEN-7915 (40 mg/kg)
# [23] = PUT, 1-TC model, pretreatment PFE-360 (0.5 mg/kg)
# [24] = PUT, 2-TC model, pretreatment GEN-7915 (40 mg/kg)
# [25] = PUT, 2-TC model, pretreatment PFE-360 (0.5 mg/kg)
# [26] = THA, 1-TC model, pretreatment GEN-7915 (40 mg/kg)
# [27] = THA, 1-TC model, pretreatment PFE-360 (0.5 mg/kg)
# [28] = THA, 2-TC model, pretreatment GEN-7915 (40 mg/kg)
# [29] = THA, 2-TC model, pretreatment PFE-360 (0.5 mg/kg)
smiles,measurement,setting,value
"C[C@@H]1C[C@@H]([18F])CN1c1c(C#N)c2c(N)nccc2n1C [[^18F]1, 4-Amino-2-((2R,4R)-4-[^18F]fluoro-2-methylpyrrolidin-1-yl)-1-methyl-1H-pyrrolo[3,2-c]pyridine-3-carbonitrile]","Parent compound, share of eluted plasma radioactivity",[1]; at 5 min,over 90%
same,"Parent compound, share of eluted plasma radioactivity",[1]; at 90 min,around 10%
same,VT,"cynomolgus monkey brain; ACC, 1-TC model, Baseline",6.03
same,VT/fp,"cynomolgus monkey brain; ACC, 1-TC model, Baseline",17.7
same,VT,cynomolgus monkey brain; [2],8.50
same,VT/fp,cynomolgus monkey brain; [2],20.9
same,VT,cynomolgus monkey brain; [3],9.28
same,VT/fp,cynomolgus monkey brain; [3],20.2
same,VT,"cynomolgus monkey brain; ACC, 2-TC model, Baseline",6.04
same,VT,cynomolgus monkey brain; [4],8.71
same,VT/fp,cynomolgus monkey brain; [4],21.4
same,VT,cynomolgus monkey brain; [5],9.39
same,VT/fp,cynomolgus monkey brain; [5],20.4
same,VT,"cynomolgus monkey brain; AMY, 1-TC model, Baseline",6.15
same,VT/fp,"cynomolgus monkey brain; AMY, 1-TC model, Baseline",18.1
same,VT,cynomolgus monkey brain; [6],7.29
same,VT/fp,cynomolgus monkey brain; [6],17.9
same,VT,cynomolgus monkey brain; [7],7.56
same,VT/fp,cynomolgus monkey brain; [7],16.4
same,VT,"cynomolgus monkey brain; AMY, 2-TC model, Baseline",6.23
same,VT/fp,"cynomolgus monkey brain; AMY, 2-TC model, Baseline",18.3
same,VT,cynomolgus monkey brain; [8],7.36
same,VT/fp,cynomolgus monkey brain; [8],18.1
same,VT,cynomolgus monkey brain; [9],7.78
same,VT/fp,cynomolgus monkey brain; [9],16.9
same,VT,"cynomolgus monkey brain; CAU, 1-TC model, Baseline",5.83
same,VT/fp,"cynomolgus monkey brain; CAU, 1-TC model, Baseline",17.2
same,VT,cynomolgus monkey brain; [10],7.78
same,VT/fp,cynomolgus monkey brain; [10],19.1
same,VT,cynomolgus monkey brain; [11],8.50
same,VT/fp,cynomolgus monkey brain; [11],18.5
same,VT,"cynomolgus monkey brain; CAU, 2-TC model, Baseline",5.87
same,VT/fp,"cynomolgus monkey brain; CAU, 2-TC model, Baseline",17.3
same,VT,cynomolgus monkey brain; [12],7.89
same,VT/fp,cynomolgus monkey brain; [12],19.4
same,VT,cynomolgus monkey brain; [13],8.50
same,VT/fp,cynomolgus monkey brain; [13],18.5
same,VT,"cynomolgus monkey brain; CB, 1-TC model, Baseline",4.13
same,VT/fp,"cynomolgus monkey brain; CB, 1-TC model, Baseline",12.2
same,VT,cynomolgus monkey brain; [14],5.03
same,VT/fp,cynomolgus monkey brain; [14],12.3
same,VT,cynomolgus monkey brain; [15],5.67
same,VT/fp,cynomolgus monkey brain; [15],12.3
same,VT,"cynomolgus monkey brain; CB, 2-TC model, Baseline",4.41
same,VT/fp,"cynomolgus monkey brain; CB, 2-TC model, Baseline",13.0
same,VT,cynomolgus monkey brain; [16],5.08
same,VT/fp,cynomolgus monkey brain; [16],12.5
same,VT,cynomolgus monkey brain; [17],5.69
same,VT/fp,cynomolgus monkey brain; [17],12.4
same,VT,"cynomolgus monkey brain; FC, 1-TC model, Baseline",5.26
same,VT/fp,"cynomolgus monkey brain; FC, 1-TC model, Baseline",15.5
same,VT,cynomolgus monkey brain; [18],6.53
same,VT/fp,cynomolgus monkey brain; [18],16.0
same,VT,cynomolgus monkey brain; [19],7.68
same,VT/fp,cynomolgus monkey brain; [19],16.7
same,VT,"cynomolgus monkey brain; FC, 2-TC model, Baseline",5.26
same,VT/fp,"cynomolgus monkey brain; FC, 2-TC model, Baseline",15.5
same,VT,cynomolgus monkey brain; [20],6.74
same,VT/fp,cynomolgus monkey brain; [20],16.5
same,VT,cynomolgus monkey brain; [21],7.72
same,VT/fp,cynomolgus monkey brain; [21],16.8
same,Brain uptake,"cynomolgus monkey brain; PET, iv, baseline",> 3 %ID
same,Brain washout,"cynomolgus monkey brain; PET, iv, baseline",rapid washout
same,Regional distribution of brain uptake,"cynomolgus monkey brain; PET, iv, baseline",regional differences in uptake
same,VT,"cynomolgus monkey brain; PUT, 1-TC model, Baseline",5.71
same,VT/fp,"cynomolgus monkey brain; PUT, 1-TC model, Baseline",16.8
same,VT,cynomolgus monkey brain; [22],7.56
same,VT/fp,cynomolgus monkey brain; [22],18.6
same,VT,cynomolgus monkey brain; [23],8.25
same,VT/fp,cynomolgus monkey brain; [23],17.9
same,VT,"cynomolgus monkey brain; PUT, 2-TC model, Baseline",5.89
same,VT/fp,"cynomolgus monkey brain; PUT, 2-TC model, Baseline",17.3
same,VT,cynomolgus monkey brain; [24],7.71
same,VT/fp,cynomolgus monkey brain; [24],18.9
same,VT,cynomolgus monkey brain; [25],8.25
same,VT/fp,cynomolgus monkey brain; [25],17.9
same,VT,"cynomolgus monkey brain; THA, 1-TC model, Baseline",4.80
same,VT/fp,"cynomolgus monkey brain; THA, 1-TC model, Baseline",14.1
same,VT,cynomolgus monkey brain; [26],6.05
same,VT/fp,cynomolgus monkey brain; [26],14.9
same,VT,cynomolgus monkey brain; [27],6.68
same,VT/fp,cynomolgus monkey brain; [27],14.5
same,VT,"cynomolgus monkey brain; THA, 2-TC model, Baseline",4.95
same,VT/fp,"cynomolgus monkey brain; THA, 2-TC model, Baseline",14.6
same,VT,cynomolgus monkey brain; [28],6.18
same,VT/fp,cynomolgus monkey brain; [28],15.2
same,VT,cynomolgus monkey brain; [29],6.68
same,VT/fp,cynomolgus monkey brain; [29],14.5
"C[C@@H]1C[C@@H]([18F])CN1c1c(C#N)c2c(N)ncnc2n1C [[^18F]2, 4-Amino-6-((2R,4R)-4-[^18F]fluoro-2-methyl Pyrrolidin-1-yl)-7-methyl-7H-pyrrolo[2,3-d]pyrimidine-5-carbonitrile]","Parent compound, share of eluted plasma radioactivity",[1]; at 5 min,over 90%
same,"Parent compound, share of eluted plasma radioactivity",[1]; at 90 min,around 10%
same,Brain uptake at peak,"cynomolgus monkey brain; PET, iv, baseline",3.8–4.4 %ID
same,Brain washout,"cynomolgus monkey brain; PET, iv, baseline",fast washout
same,Regional distribution of brain uptake,"cynomolgus monkey brain; PET, iv, baseline",relatively uniform distribution across all the brain regions
same,Time to reach half the peak brain level,"cynomolgus monkey brain; PET, iv, baseline",≤ 20 min
